#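 Results reflect a 48-hour exposure of cells in 96-well plates to compound at five concentrations. GI50 = concentration required for 50% inhibition of growth. TGI: total growth inhibition.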
# Legend:
# Assay in all cases: NCI anticancer screen, dose series, 48 h
# 786-0 renal = test system: 786-0 renal
# A498 renal = test system: A498 renal
# A549 NSCLC = test system: A549 NSCLC
# BT-549 breast = test system: BT-549 breast
# CAKI-1 renal = test system: CAKI-1 renal
# CCRF-CEM leukemia = test system: CCRF-CEM leukemia
# COLO 205 colon = test system: COLO 205 colon
# DU-145 prostate = test system: DU-145 prostate
# EKVX NSCLC = test system: EKVX NSCLC
# HCC-2998 colon = test system: HCC-2998 colon
# HCT-116 colon = test system: HCT-116 colon
# HCT-15 colon = test system: HCT-15 colon
# HL-60(TB) leukemia = test system: HL-60(TB) leukemia
# HOP-62 NSCLC = test system: HOP-62 NSCLC
# HOP-92 NSCLC = test system: HOP-92 NSCLC
# HS 578T breast = test system: HS 578T breast
# HT29 colon = test system: HT29 colon
# IGROV1 ovarian = test system: IGROV1 ovarian
# K-562 leukemia = test system: K-562 leukemia
# KM12 colon = test system: KM12 colon
# LOX IMVI melanoma = test system: LOX IMVI melanoma
# MALME-3M melanoma = test system: MALME-3M melanoma
# MCF7 breast = test system: MCF7 breast
# MDA-MB-231 breast = test system: MDA-MB-231 breast
# MOLT-4 leukemia = test system: MOLT-4 leukemia
# NCI-H226 lung = test system: NCI-H226 lung
# NCI-H23 lung = test system: NCI-H23 lung
# NCI-H460 lung = test system: NCI-H460 lung
# NCI-H522 lung = test system: NCI-H522 lung
# NCI/ADR-RES ovarian = test system: NCI/ADR-RES ovarian
# OVCAR-3 ovarian = test system: OVCAR-3 ovarian
# OVCAR-4 ovarian = test system: OVCAR-4 ovarian
# OVCAR-5 ovarian = test system: OVCAR-5 ovarian
# OVCAR-8 ovarian = test system: OVCAR-8 ovarian
# PC-3 prostate = test system: PC-3 prostate
# RPMI-8226 leukemia = test system: RPMI-8226 leukemia
# RXF 393 renal = test system: RXF 393 renal
# SF-268 CNS = test system: SF-268 CNS
# SF-295 CNS = test system: SF-295 CNS
# SF-539 CNS = test system: SF-539 CNS
# SK-MEL-2 melanoma = test system: SK-MEL-2 melanoma
# SK-MEL-28 melanoma = test system: SK-MEL-28 melanoma
# SK-MEL-5 melanoma = test system: SK-MEL-5 melanoma
# SK-OV-3 ovarian = test system: SK-OV-3 ovarian
# SN12C renal = test system: SN12C renal
# SNB-19 CNS = test system: SNB-19 CNS
# SNB-75 CNS = test system: SNB-75 CNS
# SR leukemia = test system: SR leukemia
# SW-620 colon = test system: SW-620 colon
# T-47D breast = test system: T-47D breast
# TK-10 renal = test system: TK-10 renal
# U251 CNS = test system: U251 CNS
# UACC-257 melanoma = test system: UACC-257 melanoma
# UACC-62 melanoma = test system: UACC-62 melanoma
# UO-31 renal = test system: UO-31 renal
structure (smiles),measurement,setting,value
N[C@@H]1CCCN(c2c(Br)cnc3[nH]cc(NC(=O)C4CC4)c23)C1,GI50,786-0 renal,220 nM
same,TGI,786-0 renal,709 nM
same,GI50,A498 renal,41.2 nM
same,TGI,A498 renal,182 nM
same,GI50,A549 NSCLC,1500 nM
same,TGI,A549 NSCLC,> 100000 nM
same,GI50,BT-549 breast,450 nM
same,TGI,BT-549 breast,38000 nM
same,GI50,CAKI-1 renal,518 nM
same,TGI,CAKI-1 renal,6000 nM
same,GI50,CCRF-CEM leukemia,211 nM
same,TGI,CCRF-CEM leukemia,> 100000 nM
same,GI50,COLO 205 colon,2270 nM
same,TGI,COLO 205 colon,59000 nM
same,GI50,DU-145 prostate,459 nM
same,TGI,DU-145 prostate,> 100000 nM
same,GI50,EKVX NSCLC,2320 nM
same,TGI,EKVX NSCLC,> 31600 nM
same,GI50,HCC-2998 colon,399 nM
same,TGI,HCC-2998 colon,> 100000 nM
same,GI50,HCT-116 colon,10600 nM
same,TGI,HCT-116 colon,> 100000 nM
same,GI50,HCT-15 colon,540 nM
same,TGI,HCT-15 colon,> 100000 nM
same,GI50,HL-60(TB) leukemia,318 nM
same,TGI,HL-60(TB) leukemia,4510 nM
same,GI50,HOP-62 NSCLC,646 nM
same,TGI,HOP-62 NSCLC,> 100000 nM
same,GI50,HOP-92 NSCLC,1020 nM
same,TGI,HOP-92 NSCLC,> 55800 nM
same,GI50,HS 578T breast,417 nM
same,TGI,HS 578T breast,26100 nM
same,GI50,HT29 colon,1010 nM
same,TGI,HT29 colon,> 100000 nM
same,GI50,IGROV1 ovarian,409 nM
same,TGI,IGROV1 ovarian,> 100000 nM
same,GI50,K-562 leukemia,303 nM
same,TGI,K-562 leukemia,> 100000 nM
same,GI50,KM12 colon,670 nM
same,TGI,KM12 colon,> 100000 nM
same,GI50,LOX IMVI melanoma,435 nM
same,TGI,LOX IMVI melanoma,13400 nM
same,GI50,MALME-3M melanoma,1270 nM
same,TGI,MALME-3M melanoma,> 100000 nM
same,GI50,MCF7 breast,123 nM
same,TGI,MCF7 breast,> 100000 nM
same,GI50,MDA-MB-231 breast,2910 nM
same,TGI,MDA-MB-231 breast,77500 nM
same,GI50,MOLT-4 leukemia,279 nM
same,TGI,MOLT-4 leukemia,> 100000 nM
same,GI50,NCI-H226 lung,11000 nM
same,TGI,NCI-H226 lung,> 94600 nM
same,GI50,NCI-H23 lung,234 nM
same,TGI,NCI-H23 lung,> 100000 nM
same,GI50,NCI-H460 lung,785 nM
same,TGI,NCI-H460 lung,> 100000 nM
same,GI50,NCI-H522 lung,13000 nM
same,TGI,NCI-H522 lung,> 100000 nM
same,GI50,NCI/ADR-RES ovarian,393 nM
same,TGI,NCI/ADR-RES ovarian,> 70700 nM
same,GI50,OVCAR-3 ovarian,364 nM
same,TGI,OVCAR-3 ovarian,> 100000 nM
same,GI50,OVCAR-4 ovarian,341 nM
same,TGI,OVCAR-4 ovarian,> 100000 nM
same,GI50,OVCAR-5 ovarian,478 nM
same,TGI,OVCAR-5 ovarian,> 100000 nM
same,GI50,OVCAR-8 ovarian,510 nM
same,TGI,OVCAR-8 ovarian,> 100000 nM
same,GI50,PC-3 prostate,20300 nM
same,TGI,PC-3 prostate,> 100000 nM
same,GI50,RPMI-8226 leukemia,680 nM
same,GI50,RXF 393 renal,61.8 nM
same,TGI,RXF 393 renal,270 nM
same,GI50,SF-268 CNS,3920 nM
same,TGI,SF-268 CNS,> 100000 nM
same,GI50,SF-295 CNS,328 nM
same,TGI,SF-295 CNS,> 100000 nM
same,GI50,SF-539 CNS,80.9 nM
same,TGI,SF-539 CNS,503 nM
same,GI50,SK-MEL-2 melanoma,492 nM
same,TGI,SK-MEL-2 melanoma,> 100000 nM
same,GI50,SK-MEL-28 melanoma,77200 nM
same,TGI,SK-MEL-28 melanoma,> 100000 nM
same,GI50,SK-MEL-5 melanoma,469 nM
same,TGI,SK-MEL-5 melanoma,2240 nM
same,GI50,SK-OV-3 ovarian,448 nM
same,TGI,SK-OV-3 ovarian,> 100000 nM
same,GI50,SN12C renal,1780 nM
same,TGI,SN12C renal,> 100000 nM
same,GI50,SNB-19 CNS,692 nM
same,TGI,SNB-19 CNS,> 100000 nM
same,GI50,SNB-75 CNS,1530 nM
same,TGI,SNB-75 CNS,7540 nM
same,GI50,SR leukemia,112 nM
same,TGI,SR leukemia,> 100000 nM
same,GI50,SW-620 colon,2060 nM
same,TGI,SW-620 colon,> 100000 nM
same,GI50,T-47D breast,38200 nM
same,TGI,T-47D breast,> 100000 nM
same,GI50,TK-10 renal,606 nM
same,TGI,TK-10 renal,> 68600 nM
same,GI50,U251 CNS,7960 nM
same,TGI,U251 CNS,> 100000 nM
same,TGI,UACC-257 melanoma,> 100000 nM
same,GI50,UACC-62 melanoma,464 nM
same,TGI,UACC-62 melanoma,> 100000 nM
same,GI50,UO-31 renal,232 nM
same,TGI,UO-31 renal,1060 nM
